Experimental data: paper PMC4533973, “Synthesis and Evaluation of Chloramphenicol Homodimers: Molecular Target, Antimicrobial Activity, and Toxicity against Human Cells” (PLoS ONE, 2015)
Like-named read-outs stand apart in the source and are kept apart here.

Tests used:
CAM acetyltransferase = target: T1, CAM acetyltransferase (Escherichia coli, UniProt P62577); test: CAM acetyltransferase assay (compounds as acetyl-acceptor substrates); format: biochemical, E. coli
T1 construct: purchased Sigma-Aldrich; host or cells: E. coli
T1 sequence (P62577 whole entry, looked up): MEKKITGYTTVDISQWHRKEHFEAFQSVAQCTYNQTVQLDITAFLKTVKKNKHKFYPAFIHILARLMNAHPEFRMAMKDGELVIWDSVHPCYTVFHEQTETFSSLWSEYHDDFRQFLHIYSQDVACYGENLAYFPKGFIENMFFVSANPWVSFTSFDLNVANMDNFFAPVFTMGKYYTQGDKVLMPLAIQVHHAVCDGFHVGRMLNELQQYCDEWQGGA
Description: Fig 6 Kinetic analysis of the CAM acetyltransferase reaction using CAM or compounds 4 and 5 as substrates. […] The product of the enzymatic reaction, coenzyme A, reacted with 5,5’-dithio-bis(2-nitrobenzoic acid) to yield 5-thio-2-nitrobenzoate which absorbs at 412 nm, with a micromolar extinction coefficient equal to 0.0136. The Vmax and Km values were determined by fitting the substrate concentrations [S] and the obtained ΔA412nm/min (Vo) values into equation V 0 = V max[S]/(K m + [S]). The obtained Vmax values were divided by 0.0136 to convert their units in μM·min^-1 (http://www.sigmaaldrich.com/technical-documents/protocols/biology/enzymatic-assay-of-chloramphenicol-acetyltransferase.html). The ratio Vmax/Km for each curve is given in parenthesis. TEXT PRINTED IN THE PICTURE: no label printed: (0.178 min^-1) | no label printed: (0.139 min^-1) | no label printed: (0.008 min^-1) DOUBTS OF THE COPYIST ABOUT THIS PICTURE: The picture prints no substance label and no measure name for the three values. They stand beside the curves marked with triangles (0.178 min^-1), circles (0.139 min^-1) and squares (0.008 min^-1). […]

S. aureus (WT) = test: Antibacterial activity (growth inhibition, EC50); format: cell-based; details: Staphylococcus aureus
From the text: (§1) A.S. Mankin (University of Illinois). E. coli ΔtolC strain BL21 DE3 with impaired AcrAB-TolC, a proton-dependent MDR efflux pump causing multidrug resistance, was offered by Dr D.N. Wilson (University of Munich) and included in our study to test if this mechanism of resistance affects the efficacy of CAM dimers. […] I. Spiliopoulou (National Reference Laboratory for Staphylococci, School of Medicine, University of Patras, Greece). Finally, E. coli strain Rosetta(DE3)pLysS, containing a chloramphenicol resistant gene in the pLysS plasmid, was purchased from Novagen and was also included in our study. Briefly, S. aureus or E. coli cells (200 μl of a 0.700 OD560 preculture) containing wild-type or mutant ribosomes were added in 3.8 ml of LB (Luria-Bertani) medium and grown at 37°C in the presence or absence of CAM or CAM dimers until the optical density of the control culture (grown in the absence of drug) reached the value 0.700 at 560 nm. For E. faecium and P. aeruginosa cultures, TSB (Tryptic Soy Broth) medium was used, instead of LB medium, in order to achieve exponential doubling times between 25 and 35 minutes. From dose-response curves, the half-maximal effective concentration (EC50) for each compound and strain was estimated. EC50 represents the molar concentration of a compound that produces 50% of the maximal possible effect. The EC50 values were mathematically determined by non linear regression fitting of the observed culture optical-density values, expressed as the percentage of 0.700 (y), into Hill Equation, y=min+max−min/1+(x/EC50)^−n where min and max are the lowest and highest observed values of the culture optical density, respectively, x the concentration of the tested compound, and n the Hill coefficient that represents the largest absolute value of the curve slope. EC50 is equal to the x- value of the sigmoid’s midpoint. Fitting was performed using the Four Parameter Logistic Curve of the SigmaPlot Program Version 11.0 (Systat Software, Inc) for Exact Graphs and Data Analysis.

MRSA (GRE2691) = test: Antibacterial activity (growth inhibition, EC50); format: cell-based; details: Staphylococcus aureus
From the text: as §1

E. faecium (GRE5152) = test: Antibacterial activity (growth inhibition, EC50); format: cell-based; details: Enterococcus faecium
From the text: as §1

MRSA (GRE2272) = test: Antibacterial activity (growth inhibition, EC50); format: cell-based; details: Staphylococcus aureus
From the text: as §1

E. coli (WT) = test: Antibacterial activity (growth inhibition, EC50); format: cell-based, Escherichia coli; details: for EC50: Escherichia coli, LB medium, 37°C, OD560; for EC50(cell growth)/IC50(puro): wild-type E. coli, IC50(puro) calculated from Ki* at 2 mM puromycin
From the text: as §1

E. coli (A2058G) = test: Antibacterial activity (growth inhibition, EC50); format: cell-based, Escherichia coli; details: for EC50: Escherichia coli
From the text: as §1

E. coli (ΔtolC) = test: Antibacterial activity (growth inhibition, EC50); format: cell-based, Escherichia coli; details: Escherichia coli, BL21-DE3
From the text: as §1

[1] = system: E. coli Rosetta(DE3)pLysS; test: Antibacterial activity (growth inhibition, EC50); format: cell-based, Escherichia coli; details: for EC50: Escherichia coli
From the text: as §1

E. coli (A2503C) = test: Antibacterial activity (growth inhibition, EC50); format: cell-based, Escherichia coli; details: for EC50: Escherichia coli
From the text: as §1

P. aeruginosa (GRE5288) = test: Antibacterial activity (growth inhibition, EC50); format: cell-based, Pseudomonas aeruginosa; details: Pseudomonas aeruginosa
From the text: as §1

[2] = LB medium, 37°C, OD560, read-out: EC50

Compound | behaviour as substrate of CAM acetyltransferase (CAM acetyltransferase) | EC50 (S. aureus (WT); [2]) [µM] | EC50 (MRSA (GRE2691); [2]) [µM] | EC50 (E. faecium (GRE5152); TSB medium, 37°C, OD560, read-out: EC50) [µM] | EC50 (MRSA (GRE2272); [2]) [µM] | EC50 (E. coli (WT)) [µM] | EC50(cell growth)/IC50(puro) (E. coli (WT)) | activity relative to CAM in inhibiting the growth of the A2058G mutant (E. coli (A2058G)) | EC50 (E. coli (A2058G)) [µM] | EC50 (E. coli (ΔtolC)) [µM] | activity compared to CAM in inhibiting the growth of Rosetta(DE3)pLysS E. coli cells [1] | EC50 [1] [µM] | fold more active than CAM in inhibiting the A2503C mutant (E. coli (A2503C)) | EC50 (E. coli (A2503C)) [µM] | EC50 (P. aeruginosa (GRE5288); TSB medium, clinical isolate with MexAB-OprM and MexXY efflux, read-out: EC50) [µM] | EC50 (S. aureus (WT)) [µM] | EC50 (MRSA (GRE2691)) [µM] | EC50 (E. faecium (GRE5152)) [µM] | EC50 (MRSA (GRE2272)) [µM] | EC50 (P. aeruginosa (GRE5288)) [µM]
O=C(N[C@H](CO)[C@H](O)c1ccc([N+](=O)[O-])cc1)c1ccc(C(=O)N[C@H](CO)[C@H](O)c2ccc([N+](=O)[O-])cc2)cc1 [Compound 5, N^1,N^4-Bis ((1R,2R)-1,3-dihydroxy-1-(4-nitrophenyl)propan-2-yl)-terephthalamide] | almost inactive | 15.4 ± 1.9 | 24 ± 3.1 | 40.9 ± 3.8 | 16.9 ± 4.4 | 25.3 ± 1.9 | 14.06 ± 1.75 | equivalent to CAM | 18 ± 1.5 | 23.7 ± 1.5 | five-fold higher activity | 23.5 ± 1.3 | approximately 2 fold | 16.4 ± 1.5 | 15.2 ± 1.3 |  |  |  |  | 
O=C(CCCCC(=O)N[C@H](CO)[C@H](O)c1ccc([N+](=O)[O-])cc1)N[C@H](CO)[C@H](O)c1ccc([N+](=O)[O-])cc1 [Compound 4, N^1,N^6-Bis((1R,2R)-1,3-dihydroxy-1-(4-nitrophenyl)propan-2-yl)adipamide] | behaves like CAM as substrate of CAM acetyltransferase |  |  |  |  | 83.6 ± 6.2 | 7.45 ± 0.81 |  | 97 ± 3.3 | 98 ± 16.3 |  | > 200 |  | > 100 |  | 28.3 ± 1.8 | 76.9 ± 8.6 | 99.8 ± 46.9 | > 200 | 72.6 ± 13.7
